Measured values as given in US8034822B2, “Glucokinase activators” (Takeda San Diego, Inc., priority 2006, dated 2011).

The molecules below were run against T1, glucokinase (GK) (Homo sapiens, UniProt P35557) (assay: enzymatic glucokinase activity assay (ATP consumption, KinaseGlo luminescence)). Settings: Against GK; Kact = concentration giving 50% of maximal increase in GK activity; 5 μM ATP, 5 mM Glucose, 60 min room temperature; values given as bins; read-out: pKact.
T1 construct: I.D. No. 1 corresponds to residues 12-465 of glucokinase; made in house; host or cells: E. coli DH10b-T1r, pFLAG-CTC plasmid
T1 sequence (P35557 with tags, fused parts or gaps isoform P35557-2): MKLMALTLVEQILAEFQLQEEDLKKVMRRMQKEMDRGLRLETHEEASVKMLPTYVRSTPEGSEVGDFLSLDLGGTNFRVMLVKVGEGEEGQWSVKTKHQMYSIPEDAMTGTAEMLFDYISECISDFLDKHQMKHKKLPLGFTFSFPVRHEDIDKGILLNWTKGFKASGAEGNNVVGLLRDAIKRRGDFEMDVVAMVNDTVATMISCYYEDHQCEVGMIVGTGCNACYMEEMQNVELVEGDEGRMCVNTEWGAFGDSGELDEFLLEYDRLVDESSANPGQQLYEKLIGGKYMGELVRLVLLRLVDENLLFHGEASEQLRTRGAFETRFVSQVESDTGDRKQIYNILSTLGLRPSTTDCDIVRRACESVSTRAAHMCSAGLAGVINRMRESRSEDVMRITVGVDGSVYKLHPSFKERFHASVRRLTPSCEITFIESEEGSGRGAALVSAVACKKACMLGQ
Assay type: biochemical
From the text: The activity of compounds as glucokinase activators may be assayed in vitro, in vivo or in a cell line. Provided below is an enzymatic glucokinase activity assay.
Purified glucokinase may be obtained as follows. DNA encoding residues 12-465 of the full-length sequence of the human enzyme may be amplified by PCR and cloned into the HindIII and EcoRI sites of pFLAG-CTC (Sigma). SEQ. I.D. No. 1 corresponds to residues 12-465 of glucokinase.
The expression of recombinant glucokinase protein may be carried out by transformation and growth of DH10b-T1r E. coli cells incorporating the (pFLAG-CTC) plasmid in LB media. Protein expression can be induced in this system by the addition of IPTG to the culture medium.
Recombinant protein may be isolated from cellular extracts by passage over Sepharose Q Fast Flow resin (Pharmacia). This partially purified GK extract may then be further purified by a second passage over Poros HQ10 (Applied Biosystems). The purity of GK may be determined on denaturing SDS-PAGE gel. Purified GK may then be concentrated to a final concentration of 20.0 mg/ml. After flash freezing in liquid nitrogen, the proteins can be stored at −78° C. in a buffer containing 25 mM TRIS-HCl pH 7.6, 50 mM NaCl, and 0.5 mM TCEP.
The activation properties of compounds for GK may be determined using a black 384-well-plate format under the following reaction conditions: 25 mM Hepes pH 7.2, 25 mM NaCl, 10 mM MgCl2, 0.01% Brij35, 1 mM DTT, 5 μM ATP, 5 mM Glucose 2% DMSO. The amount of ATP consumed may be determined quantitatively by addition of equal volume of luciferase reagent (luciferase+beetle luciferin—KinaseGlo Luminescent Kinase Assay kit from Promega). The luminescence intensity may be measured by using the Analyst HT from LJL Biosystems.
The assay reaction may be initiated as follows: 4 μl of substrate mixture (12.5 μM ATP and 12.5 mM Glucose) was added to each well of the plate, followed by the addition of 2 μl of activator (2 fold serial dilutions for 11 data points for each activator) containing 10% DMSO. 4 μL of 1.25 nM GK solution may be added to initiate the reaction. The reaction mixture may then be incubated at room temperature for 60 min, and quenched and developed by addition of 10 μL of luciferase reagent. Luminescence intensities of the resulting reaction mixtures may be measured after a 10 min incubation at room temperature. The luminescence intensity may be measured by using the Analyst HT from LJL Biosystems.
pKact and % ACTmax values may be calculated by non-linear curve fitting of the compound concentrations and luminescence intensities to a standard inhibition/activation equation.

Row | EC50 [nM] | Structure (SMILES)
1 | ≤ 398 | O=C(NC1CC1)c1ccc2c(=O)n(C(CC3CCCCC3)C(=O)Nc3ccc(Cl)cn3)cnc2c1 (stereo not shown) [Compound 171, 3-(1-(5-chloropyridin-2-ylamino)-3-cyclohexyl-1-oxopropan-2-yl)-N-cyclopropyl-4-oxo-3,4-dihydroquinazoline-7-carboxamide]
2 | 501 to 794 | CS(=O)(=O)c1ccc2ncn(C(CC3CCCCC3)C(=O)Nc3ccc(Cl)cn3)c(=O)c2c1 (stereo not shown) [Compound 79, N-(5-Chloro-pyridin-2-yl)-3-cyclohexyl-2-(6-methanesulfonyl-4-oxo-4H-quinazolin-3-yl)-propionamide]
3 | 501 to 794 | O=C(NC1CCCC1)c1ccc2c(=O)n(C(CC3CCCCC3)C(=O)Nc3ncc(Cl)s3)cnc2c1 (stereo not shown) [Compound 173, 3-(1-(5-chlorothiazol-2-ylamino)-3-cyclohexyl-1-oxopropan-2-yl)-N-cyclopentyl-4-oxo-3,4-dihydroquinazoline-7-carboxamide]
4 | 501 to 794 | CS(=O)(=O)c1ccc2c(=O)n(C(CC3CCCCC3)C(=O)Nc3ncc(Cl)s3)c(=O)[nH]c2c1 (stereo not shown) [Compound 55, N-(5-Chloro-thiazol-2-yl)-3-cyclohexyl-2-(7-methanesulfonyl-2,4-dioxo-1,4-dihydro-2H-quinazolin-3-yl)-propionamide]
5 | 1000 to 1580 | COC(=O)c1ccc(NC(=O)C(CC2CCCCC2)n2cnc3c(S(C)(=O)=O)csc3c2=O)nc1 (stereo not shown) [Compound 102, Methyl 6-(3-cyclohexyl-2-(7-(methylsulfonyl)-4-oxothieno[3,2-d]pyrimidin-3(4H)-yl)propanamido)nicotinate]
6 | ≥ 2000 | O=C(NC1CC1)c1ccc2c(=O)n(C(CC3CCCCC3)C(=O)Nc3ccc(F)cn3)c(=O)[nH]c2c1 (stereo not shown) [Compound 119, 3-(3-cyclohexyl-1-(5-fluoropyridin-2-ylamino)-1-oxopropan-2-yl)-N-cyclopropyl-2,4-dioxo-1,2,3,4-tetrahydroquinazoline-7-carboxamide]
7 | ≥ 2000 | CCOC(=O)CCc1ccc(NC(=O)C(CC2CCCCC2)n2cnc3cc(S(C)(=O)=O)ccc3c2=O)nc1 (stereo not shown) [Compound 76, 3-{6-[3-Cyclohexyl-2-(7-methanesulfonyl-4-oxo-4H-quinazolin-3-yl)-propionylamino]-pyridin-3-yl}-propionic acid ethyl ester]
8 | 1000 to 1580 | O=C(Nc1ncc(Cl)s1)C(CC1CCCCC1)n1cnc2ccc(Cl)cc2c1=O (stereo not shown) [Compound 47, 2-(6-Chloro-4-oxo-4H-quinazolin-3-yl)-N-(5-chloro-thiazol-2-yl)-3-cyclohexyl-propionamide]
9 | ≥ 2000 | O=C(NC1CC1)c1ccc2c(=O)n(C(CC3CCOCC3)C(=O)Nc3ncc(Cl)s3)cnc2c1 (stereo not shown) [Compound 180, 3-(1-(5-chlorothiazol-2-ylamino)-1-oxo-3-(tetrahydro-2H-pyran-4-yl)propan-2-yl)-N-cyclopropyl-4-oxo-3,4-dihydroquinazoline-7-carboxamide]
10 | 1000 to 1580 | CS(=O)(=O)c1csc2c(=O)n(C(CC3CCCCC3)C(=O)Nc3ccc(Cl)cn3)cnc12 (stereo not shown) [Compound 184, N-(5-chloropyridin-2-yl)-3-cyclohexyl-2-(7-(methylsulfonyl)-4-oxothieno[3,2-d]pyrimidin-3(4H)-yl)propanamide]
11 | 501 to 794 | O=C(Nc1nc2ccccc2s1)C(CC1CCCCC1)n1cnc2ccc(F)cc2c1=O (stereo not shown) [Compound 35, N-(benzo[d]thiazol-2-yl)-3-cyclohexyl-2-(6-fluoro-4-oxoquinazolin-3(4H)-yl)propanamide]
12 | 501 to 794 | CC(C)S(=O)(=O)c1ccc2ncn(C(CC3CCCCC3)C(=O)Nc3ccc(Cl)cn3)c(=O)c2c1 (stereo not shown) [Compound 84, N-(5-Chloro-pyridin-2-yl)-3-cyclohexyl-2-[4-oxo-6-(propane-2-sulfonyl)-4H-quinazolin-3-yl]-propionamide]
13 | ≤ 398 | COC(=O)c1ccc(NC(=O)[C@@H](CC2CCCCC2)n2cnc3c(C(F)(F)F)cccc3c2=O)nc1 [Compound 211, (R)-methyl 6-(3-cyclohexyl-2-(4-oxo-8-(trifluoromethyl)quinazolin-3(4H)-yl)propanamido)nicotinate]
14 | 501 to 794 | O=C(Nc1ccc2ccccc2n1)C(CC1CCCCC1)n1cnc2ccc(F)cc2c1=O (stereo not shown) [Compound 195, 3-cyclohexyl-2-(6-fluoro-4-oxoquinazolin-3(4H)-yl)-N-(quinolin-2-yl)propanamide]
15 | 501 to 794 | O=C(Nc1ccc(Cl)cn1)C(CC1CCCCC1)n1cnc2cc(S(=O)(=O)C3CC3)ccc2c1=O (stereo not shown) [Compound 75, N-(5-Chloro-pyridin-2-yl)-3-cyclohexyl-2-(7-cyclopropanesulfonyl-4-oxo-4H-quinazolin-3-yl)-propionamide]
16 | 1000 to 1580 | COC(=O)c1ccc(NC(=O)[C@H](CC2CCCCC2)n2cnc3c(C(F)(F)F)cccc3c2=O)nc1 [Compound 210, (S)-methyl 6-(3-cyclohexyl-2-(4-oxo-8-(trifluoromethyl)quinazolin-3(4H)-yl)propanamido)nicotinate]
